Laboratory results reported in BindingDB's records for doi:10.3109/14756366.2010.486793 (University of Zimbabwe, 2010).
pIC50: −log10 of the molar value.

Target: glutathione S-transferase (Plasmodium falciparum)
Experiment: A range of natural products were screened for inhibition of PfGST by GST assay with CDNB as a substrate, using a 96-well SpectraMax 340 microplate spectrophotometer equipped with a kinetics mode (Molecular Devices, California). The final concentration of CDNB was 0.5 mM and of GSH was 1mM. Ethacrynic acid (ETA) and haemin were used as positive controls. The incub

pIC50 | Structure (SMILES)
5.07 | C=C1C(=O)OC2/C=C(\COC(C)=O)CC/C=C(\CO)CC(OC(C)=O)[C@@H]12 (stereo partly drawn) [JB42C]
4.92 | C=Cc1c(OC=O)cc(O)c2c1OC(c1ccc(O)c(O)c1)C(O)C2 (stereo not drawn) [TRAL-1]
< 4.00 | COC(=O)[C@@H]1[C@@H]2C[C@H]3N(C)CC[C@@]34c3ccccc3N(C(C)=O)[C@H]4[C@@H]2CO[C@@H]1C [Malagashanine]
